Reference: ChEMBL document CHEMBL1136595, “Oximino-piperidino-piperidine-based CCR5 antagonists. Part 2: synthesis, SAR and biological evaluation of symmetrical heteroaryl carboxamides” (Bioorg Med Chem Lett, 2003)
pIC50, pKi: −log10 of the molar value.

Experiments:
[1] = target: C-C chemokine receptor type 5 (Homo sapiens, UniProt P51681); assay: Inhibition of [125I]RANTES binding to CCR5 receptor.
[2] = Area under curve after peroral administration at 10 mg/kg in rat for 0-6 h; type: ADME, organism-based; set-up: time < 6 hr, dose 10 mg/kg, route oral; details: in vivo, po
[3] = test system: Human immunodeficiency virus 1; assay: Inhibition of HIV-1 (ADA) entry into U-87 (human glioblastoma) cells.; type: functional, organism-based; details: Human immunodeficiency virus 1, U-87 MG

C-C chemokine receptor type 5, sequence (P51681 whole entry): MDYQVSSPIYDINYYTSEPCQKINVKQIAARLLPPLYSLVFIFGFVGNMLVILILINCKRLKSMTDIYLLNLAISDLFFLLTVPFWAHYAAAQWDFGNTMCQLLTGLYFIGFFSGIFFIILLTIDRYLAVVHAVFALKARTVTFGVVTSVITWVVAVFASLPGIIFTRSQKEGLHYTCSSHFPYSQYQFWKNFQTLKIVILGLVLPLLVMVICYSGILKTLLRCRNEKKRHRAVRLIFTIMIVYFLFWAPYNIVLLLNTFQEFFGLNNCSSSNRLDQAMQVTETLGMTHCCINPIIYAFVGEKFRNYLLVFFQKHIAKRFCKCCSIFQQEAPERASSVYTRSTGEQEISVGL

Row | Compound | pKi [1] | AUC at 6 h [2] | pIC50 [3]
1 | CCO/N=C(/c1ccc(Br)cc1)C1CCN(C2(C)CCN(C(=O)c3c(C)nc(C4CC4)nc3C)CC2)CC1 | 7.60 | – | –
2 | CCO/N=C(/c1ccc(Br)cc1)C1CCN(C2(C)CCN(C(=O)c3c(C)nc(C(C)C)nc3C)CC2)CC1 | 7.37 | – | –
3 | CCO/N=C(/c1ccc(Br)cc1)C1CCN(C2(C)CCN(C(=O)c3c(C)nc(NC(C)=O)nc3C)CC2)CC1 | 7.22 | – | –
4 | CCCO/N=C(/c1ccc(Br)cc1)C1CCN(C2(C)CCN(C(=O)c3c(C)ncnc3C)CC2)CC1 | 8.70 | 1600 ng·h/mL | 9.05
5 | CCO/N=C(/c1ccc(Br)cc1)C1CCN(C2(C)CCN(C(=O)c3c(C)nc(SC)nc3C)CC2)CC1 | 8.89 | 400 ng·h/mL | –
6 | CCO/N=C(/c1ccc(Br)cc1)C1CCN(C2(C)CCN(C(=O)c3c(C)nc(C(F)(F)F)nc3C)CC2)CC1 | 8.49 | 2000 ng·h/mL | 9.59
7 | Cc1ncnc(C)c1C(=O)N1CCC(C)(N2CCC(/C(=N\OC(C)C)c3ccc(Br)cc3)CC2)CC1 | 8.48 | 2400 ng·h/mL | 9.55
8 | Cc1ncnc(C)c1C(=O)N1CCC(C)(N2CCC(/C(=N\OCC(F)(F)F)c3ccc(Br)cc3)CC2)CC1 | 7.85 | 6900 ng·h/mL | 8.42
9 | CCO/N=C(/c1ccc(Br)cc1)C1CCN(C2(C)CCN(C(=O)c3c(C)nc(N)nc3C)CC2)CC1 | 8.24 | 3100 ng·h/mL | 9.46
10 | CO/N=C(\c1ccc(Br)cc1)C1CCN(C2(C)CCN(C(=O)c3c(C)ncnc3C)CC2)CC1 | 8.33 | 4100 ng·h/mL | 8.74
11 | CCO/N=C(\c1ccc(Br)cc1)C1CCN(C2(C)CCN(C(=O)c3c(C)c[n+]([O-])cc3C)CC2)CC1 | 8.06 | 1600 ng·h/mL | 9.40
12 | CCO/N=C(\c1ccc(Br)cc1)C1CCN(C2(C)CCN(C(=O)c3c(Br)c[n+]([O-])cc3Br)CC2)CC1 | 9.15 | 4400 ng·h/mL | 8.91
13 | CCO/N=C(\c1ccc(Br)cc1)C1CCN(C2(C)CCN(C(=O)c3c(C)cncc3C)CC2)CC1 | 8.64 | 1300 ng·h/mL | –
14 | CCO/N=C(\c1ccc(Br)cc1)C1CCN(C2(C)CCN(C(=O)c3c(Cl)c[n+]([O-])cc3Cl)CC2)CC1 | 8.92 | 3900 ng·h/mL | 9.82
15 | CCO/N=C(/c1ccc(Br)cc1)C1CCN(C2(C)CCN(C(=O)c3c(C)nc(C)nc3C)CC2)CC1 | 8.68 | 2700 ng·h/mL | 9.03
16 | Cc1ncnc(C)c1C(=O)N1CCC(C)(N2CCC(/C(=N\OCC(C)C)c3ccc(Br)cc3)CC2)CC1 | 8.09 | 600 ng·h/mL | 8.93
17 | CCO/N=C(/c1ccc(Br)cc1)C1CCN(C2(C)CCN(C(=O)c3c(C)nc(NS(C)(=O)=O)nc3C)CC2)CC1 | 6.50 | – | –
18 | CCO/N=C(/c1ccc(Br)cc1)C1CCN(C2(C)CCN(C(=O)c3c(C)nc(OC)nc3C)CC2)CC1 | 8.28 | 1800 ng·h/mL | 9.89
19 | Cc1ncnc(C)c1C(=O)N1CCC(C)(N2CCC(/C(=N\OCC3CC3)c3ccc(Br)cc3)CC2)CC1 | 7.96 | 3700 ng·h/mL | –
20 | CCO/N=C(\c1ccc(Br)cc1)C1CCN(C2(C)CCN(C(=O)c3c(Br)cncc3Br)CC2)CC1 | – | 500 ng·h/mL | 8.98
21 | CCO/N=C(\c1ccc(Br)cc1)C1CCN(C2(C)CCN(C(=O)c3c(Cl)cncc3Cl)CC2)CC1 | – | 500 ng·h/mL | 9.16
22 | CCO/N=C(\c1ccc(Br)cc1)C1CCN(C2(C)CCN(C(=O)c3c(C)ncnc3C)CC2)CC1 | 8.66 | 3100 ng·h/mL | 9.44
23 | COC[C@@H](c1ccc(C(F)(F)F)cc1)N1CCN(C2(C)CCN(C(=O)c3c(C)ncnc3C)CC2)C[C@@H]1C [VICRIVIROC] | – | 6500 ng·h/mL | 9.22
